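Following 48 hours of exposure in 96-well plates, responses at five concentrations were used to interpolate endpoints linearly. GI50 marks 50% less growth.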 Active and inactive are the calls of the source. No stated cut-off is given here; in the data, active = GI50 up to about 1.1 µM and inactive = higher.
How the values were obtained:
Assay in all cases: inhibition of tumour cell growth, NCI panel, 48 h
[1] = test system: KM12
[2] = test system: SNB-75
[3] = test system: RXF 393
[4] = test system: A549
[5] = test system: CCRF-CEM
[6] = test system: HCT-15
[7] = test system: UACC-257
[8] = test system: KM-20L2
[9] = test system: HOP-62
[10] = test system: MOLT-4
[11] = test system: CAKI-1
[12] = test system: K562
[13] = test system: SF-295
[14] = test system: M19-MEL
[15] = test system: XF498
[16] = test system: SK-MEL-28
[17] = test system: TK-10
[18] = test system: DMS-114
[19] = test system: LXFL 529
[20] = test system: HOP-92
[21] = test system: NCI-H226
[22] = test system: DLD-1
[23] = test system: UO-31
[24] = test system: HCC 2998
[25] = test system: RXF 631
[26] = test system: RPMI-8226
[27] = test system: HL-60
[28] = test system: SR
[29] = test system: SF-268
[30] = test system: U-251
[31] = test system: OVCAR-4
[32] = test system: DMS-273
[33] = test system: SNB-78
[34] = test system: EKVX
[35] = test system: SK-OV-3
[36] = test system: NCI-H460
[37] = test system: OVCAR-8
[38] = test system: 786-0
[39] = test system: UACC-62
[40] = test system: SF-539
[41] = test system: LOX IMVI
[42] = test system: NCI-H23
[43] = test system: SK-MEL-5
[44] = test system: HT-29
[45] = test system: OVCAR-5
[46] = test system: A498
[47] = test system: SK-MEL-2
[48] = test system: IGROV-1
[49] = test system: SNB-19
[50] = test system: NCI-H522
[51] = test system: HCT-116
[52] = test system: M14
[53] = test system: Malme-3M
[54] = test system: SN12C
[55] = test system: ACHN
[56] = test system: HOP-18
[57] = test system: COLO 205
[58] = test system: OVCAR-3
[59] = test system: SW-620

Measured: GI50

CCOC(OC1=C(C#N)CCCC1)C(CC)[Se]c1ccccc1 (stereo not given)
inactive: [1] > 100 µM | [2] 29.3 µM | [3] 15 µM | [4] 39.4 µM | [5] 15.7 µM | [7] 46.7 µM | [8] 25.1 µM | [9] 59.7 µM | [10] 20.7 µM | [11] 53.1 µM | [12] 38.9 µM | [13] 27.6 µM | [14] 19.4 µM | [15] 20.4 µM | [16] 23.6 µM | [17] > 100 µM | [18] 4.1 µM | [19] 19.4 µM | [20] 25 µM | [21] 19.4 µM | [22] 16.1 µM | [23] 37.8 µM | [24] 35.2 µM | [25] 11.3 µM | [26] 16.2 µM | [27] 10.1 µM | [28] 7.8 µM | [29] 12.1 µM | [30] 13 µM | [31] 19.3 µM | [32] 12 µM | [33] 33.8 µM | [34] 24.4 µM | [35] > 100 µM | [36] 17.8 µM | [37] 16.8 µM | [38] 17.4 µM | [39] 13.7 µM | [40] 14.3 µM | [41] 9.25 µM | [42] 14.3 µM | [43] 16.4 µM | [44] 29 µM | [45] 32.4 µM | [46] 13.6 µM | [47] 29.4 µM | [48] 20.7 µM | [49] 39.9 µM | [50] 14.7 µM | [51] 14.5 µM | [52] 26.3 µM | [53] 31 µM | [54] 16.3 µM | [55] 30.1 µM | [56] 16.4 µM | [57] 17.5 µM | [58] 19.9 µM
16.2 µM: [6]

CC(/C=C/C(=O)c1sc(C(N)=S)nc1C)=C\c1ccccc1
inactive: [1] > 100 µM | [2] > 100 µM | [3] > 100 µM | [4] > 100 µM | [5] 58.2 µM | [7] > 100 µM | [8] 80.2 µM | [9] > 100 µM | [10] > 100 µM | [11] 23.4 µM | [12] > 100 µM | [13] > 100 µM | [14] > 100 µM | [15] > 100 µM | [16] > 100 µM | [17] > 100 µM | [18] 17 µM | [19] > 100 µM | [20] > 100 µM | [21] > 100 µM | [22] 21 µM | [23] > 100 µM | [24] > 100 µM | [25] 40.6 µM | [26] 19.3 µM | [27] > 100 µM | [28] 31.9 µM | [29] > 100 µM | [30] > 100 µM | [31] > 100 µM | [32] 20 µM | [33] > 100 µM | [34] > 100 µM | [35] > 100 µM | [36] 35.4 µM | [37] > 100 µM | [38] > 100 µM | [39] > 100 µM | [40] > 100 µM | [41] 18.2 µM | [42] > 100 µM | [43] > 100 µM | [44] > 100 µM | [45] > 100 µM | [46] > 100 µM | [47] > 100 µM | [48] > 100 µM | [49] 15.1 µM | [50] 81.8 µM | [51] > 10 µM | [52] > 100 µM | [53] > 100 µM | [54] > 100 µM | [55] 81.8 µM | [56] > 100 µM | [57] 54 µM | [58] > 100 µM
> 100 µM: [6]

CC[n+]1c(/C=C/c2ccc(N(CCCl)CCCl)cc2)ccc2cc(Br)ccc21
14.9 µM: [6]
inactive: [1] 1.68 µM | [3] 1.31 µM | [4] 3.52 µM | [8] 3.13 µM | [9] 3.43 µM | [10] 1.46 µM | [11] 2.62 µM | [13] 2.65 µM | [14] 1.2 µM | [16] 1.21 µM | [17] 4.48 µM | [21] 1.82 µM | [22] 2.71 µM | [23] 15.1 µM | [24] 1.38 µM | [25] 630 µM | [26] 2.53 µM | [28] 1.46 µM | [29] 1.61 µM | [30] 1.31 µM | [32] 244 µM | [34] 3.52 µM | [35] 2.23 µM | [36] 2.65 µM | [37] 1.86 µM | [38] 1.84 µM | [59] 1.93 µM | [39] 1.19 µM | [40] 1.55 µM | [41] 1.47 µM | [42] 2.79 µM | [44] 2.86 µM | [45] 3.99 µM | [46] 1310 µM | [49] 1.22 µM | [51] 131 µM | [52] 1.87 µM | [53] 1.13 µM | [54] 2.48 µM | [55] 3.17 µM | [56] 6.14 µM | [57] 69.7 µM
active: [2] 0.312 µM | [5] 0.345 µM | [7] 1.11 µM | [12] 0.361 µM | [15] 0.275 µM | [18] 0.662 µM | [19] 0.67 µM | [20] 1.06 µM | [27] 0.246 µM | [31] 1.01 µM | [33] 0.76 µM | [43] 1.1 µM | [47] 0.382 µM | [48] 0.574 µM | [50] 0.471 µM | [58] 0.587 µM

— ChEMBL document CHEMBL1201862, “PubChem BioAssay data set” (2004)
